Square brackets hold non-standard residues; d marks the D form. Peptide text beside a SMILES is read from it. * marks the point of attachment. Palmitoyl = CCCCCCCCCCCCCCCC(=O)*; Myristoyl = CCCCCCCCCCCCCC(=O)*; Decanoyl = CCCCCCCCCC(=O)*; Nle = CCCC[C@H](N)C(=O)O; Octanoyl = CCCCCCCC(=O)*
Key:
rat PrRP receptor = target: T1, rat PrRP receptor (Rattus norvegicus, UniProt Q64121); test: Competitive binding in RC-4B/C rat pituitary cells (125I-rat PrRP31); conditions: for % of PrRP31, RC-4B/C rat pituitary cells: affinity relative to PrRP31
T1 construct: host or cells: RC-4B/C rat pituitary cell line
T1 sequence (Q64121 1-370): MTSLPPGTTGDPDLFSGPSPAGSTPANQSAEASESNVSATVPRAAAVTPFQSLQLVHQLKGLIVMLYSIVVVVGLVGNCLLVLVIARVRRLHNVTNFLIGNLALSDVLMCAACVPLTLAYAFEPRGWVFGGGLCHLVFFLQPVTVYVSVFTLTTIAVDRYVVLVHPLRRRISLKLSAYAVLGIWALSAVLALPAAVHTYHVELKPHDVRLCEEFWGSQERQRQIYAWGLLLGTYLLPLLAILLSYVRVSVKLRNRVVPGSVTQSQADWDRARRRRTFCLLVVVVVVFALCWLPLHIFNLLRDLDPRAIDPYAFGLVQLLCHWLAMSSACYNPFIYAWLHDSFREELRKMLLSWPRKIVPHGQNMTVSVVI
Method in brief: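 Displacement of rat 125I-PrRP31 ([…]) by test analogs, 10^−11–10^−4 mol·l^−1, on whole RC-4B/C cells, 60 min RT. Bound counts measured by γ-counter in duplicate, ≥3 repeats, analyzed by nonlinear one-site binding regression.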

[1] = target: T2, human PrRP receptor GPR10 (Homo sapiens, UniProt P49683); test: Competitive binding in CHO cells transfected with human GPR10 (human 125I-PrRP31); conditions: for Ki: CHO cells, human 125I-PrRP31, read-out: Ki, GPR10 human receptor transfected in CHO cells; for % of PrRP31, GPR10 human receptor transfected in CHO cells: affinity relative to PrRP31
T2 construct: host or cells: CHO cells
T2 sequence (P49683 1-370): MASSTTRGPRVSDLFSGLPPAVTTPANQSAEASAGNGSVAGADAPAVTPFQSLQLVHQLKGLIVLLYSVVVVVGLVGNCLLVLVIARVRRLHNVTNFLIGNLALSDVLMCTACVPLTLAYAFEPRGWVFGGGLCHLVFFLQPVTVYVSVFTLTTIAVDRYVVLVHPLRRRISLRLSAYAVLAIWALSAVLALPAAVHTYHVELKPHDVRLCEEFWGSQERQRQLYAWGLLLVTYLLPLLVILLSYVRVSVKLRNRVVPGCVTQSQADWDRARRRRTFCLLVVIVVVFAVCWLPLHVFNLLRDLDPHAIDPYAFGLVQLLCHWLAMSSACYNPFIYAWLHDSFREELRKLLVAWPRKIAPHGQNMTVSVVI
Method in brief: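 Values from one-site nonlinear regression of displacement curves: analogs (final 10^-11 to 10^-4 mol·l^-1) competed with 125I-PrRP31 (final 5×10^-11 mol·l^-1) on adherent human GPR10 CHO cells. Binding ran 1 h at room temperature, pH 7.4 buffer with NaCl, MgCl2, CaCl2, glucose, BSA; cell-bound radioactivity counted after NaOH lysis.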

C57BL/6 mice = test: Food intake in fasted mice after SC injection; assay type: in vivo; conditions: 5 mg/kg SC, 45 min after injection
Method: NMRI mice, C57BL/6 mice, and Wistar rats (AnLab, Prague, Czech Republic) were housed in a temperature of 23° C. and a daily cycle of 12 h light and dark (light from 6:00). They were given ad libitum water and a standard chow diet that contained 25, 9 and 66% of calories of protein, fat and carbohydrate respectively. Energy content of the feed was 3.4 kcal/g (St-1, Mlýn Kocanda, Czech Republic). Db/db mice and their controls (C57BL/6 background) were obtained from Taconic (Denmark), housed under the same conditions as described above, and fed by Altromin (Taconic, Denmark). ZDF-Lepr^fa/Crl, diabetic fa/fa male rats were obtained from Charles River (France), housed under same conditions as described above, and fed with a Purina 5008 diet (IPS Product Supplies Limited, UK). All experiments followed the ethical guidelines for animal experiments and the law of the Czech Republic Nr. 246/1992.
In experiments with C57BL/6 mice or Wistar rats, food intake was measured with overnight fasted animals in individual cages. Food was withdrawn 17 hours prior to injection of lipidated analog of prolactin releasing peptide (PrRP); free access to water was maintained. The administration of either saline, PrRP, or lipidated analogs was performed by SC injection at doses of 1-10 mg/kg (which corresponded to a volume of 0.2 ml/mouse and 0.1 ml/100 g weight of rat). Fifteen minutes after the lipidated analog of prolactin releasing peptide (PrRP) administration, the mice were given pre-weighed food. The food was then weighed every 30 minutes for 5-10 hours. The administration of each dose was performed at least twice, and each group of mice consisted of at least 6 mice.

Structure (SMILES) | % of PrRP31, RC-4B/C rat pituitary cells (rat PrRP receptor) [%] | Ki [1] [nM] | % of PrRP31, GPR10 human receptor transfected in CHO cells [1] [%] | Food intake in mice % of saline-treated group (C57BL/6 mice) [%] | Displacement of rat 125I-PrRP binding (rat PrRP receptor; RC-4B/C cells, rat PrRP receptor) | Displacement of human 125I-PrRP binding ([1]; human GPR10 receptor)
CCCCCCCCCCCCCC(=O)N[C@H](C(=O)N1CCC[C@H]1C(=O)N[C@@H](CC(=O)O)C(=O)N[C@H](C(=O)N[C@@H](CC(N)=O)C(=O)N1CCC[C@H]1C(=O)N[C@@H](C)C(=O)N[C@@H](Cc1c[nH]c2ccccc12)C(=O)N[C@@H](Cc1ccc(O)cc1)C(=O)N[C@H](C(=O)NCC(=O)N[C@@H](CCCNC(=N)N)C(=O)NCC(=O)N[C@H](C(=O)N[C@@H](CCCNC(=N)N)C(=O)N1CCC[C@H]1C(=O)N[C@H](C(=O)NCC(=O)N[C@@H](CCCNC(=N)N)C(=O)N[C@@H](Cc1ccccc1)C(N)=O)C(C)C)[C@@H](C)CC)[C@@H](C)O)[C@@H](C)CC)[C@@H](C)O [Analog 1] (Myristoyl-TPDINPAWYTGRGIRPVGRF-NH2) | 632 | 2.93 ± 0.2 | 133 | 32 |  | 
CCCCCCCCCCCCCC(=O)N[C@H](C(=O)N1CCC[C@H]1C(=O)N[C@@H](CC(=O)O)C(=O)N[C@H](C(=O)N[C@@H](CC(N)=O)C(=O)N1CCC[C@H]1C(=O)N[C@@H](C)C(=O)N[C@@H](Cc1c[nH]c2ccccc12)C(=O)N[C@@H](Cc1ccc(O)cc1)C(=O)N[C@@H](C)C(=O)N[C@@H](CO)C(=O)N[C@@H](CCCNC(=N)N)C(=O)NCC(=O)N[C@H](C(=O)N[C@@H](CCCNC(=N)N)C(=O)N1CCC[C@H]1C(=O)N[C@H](C(=O)NCC(=O)N[C@@H](CCCNC(=N)N)C(=O)N[C@@H](Cc1ccccc1)C(N)=O)C(C)C)[C@@H](C)CC)[C@@H](C)CC)[C@@H](C)O [Analog 2] (Myristoyl-TPDINPAWYASRGIRPVGRF-NH2) | 1027 |  | 90 | 10 | nmol·l^−1 range | nmol·l^−1 range
CCCC[C@H](NC(=O)[C@H](CO)NC(=O)[C@H](Cc1c[nH]cn1)NC(=O)[C@H](CCC(N)=O)NC(=O)[C@H](Cc1c[nH]cn1)NC(=O)[C@H](C)NC(=O)[C@H](CCCNC(=N)N)NC(=O)[C@@H](N)CO)C(=O)N[C@@H](CCC(=O)O)C(=O)N[C@H](C(=O)N[C@@H](CCCNC(=N)N)C(=O)N[C@H](C(=O)N1CCC[C@H]1C(=O)N[C@@H](CC(=O)O)C(=O)N[C@H](C(=O)N[C@@H](CC(N)=O)C(=O)N1CCC[C@H]1C(=O)N[C@@H](C)C(=O)N[C@@H](Cc1c[nH]c2ccccc12)C(=O)N[C@@H](Cc1ccc(O)cc1)C(=O)N[C@H](C(=O)NCC(=O)N[C@@H](CCCNC(=N)N)C(=O)NCC(=O)N[C@H](C(=O)N[C@@H](CCCNC(=N)N)C(=O)N1CCC[C@H]1C(=O)N[C@H](C(=O)NCC(=O)N[C@@H](CCCNC(=N)N)C(=O)N[C@@H](Cc1ccccc1)C(N)=O)C(C)C)[C@@H](C)CC)[C@@H](C)O)[C@@H](C)CC)[C@@H](C)O)[C@@H](C)O [Analog 3] (H-SRAHQHS[Nle]ETRTPDINPAWYTGRGIRPVGRF-NH2) | 385 |  | 203 | 100 |  | 
CCCCCCCC(=O)N[C@@H](CO)C(=O)N[C@@H](CCCNC(=N)N)C(=O)N[C@@H](C)C(=O)N[C@@H](Cc1c[nH]cn1)C(=O)N[C@@H](CCC(N)=O)C(=O)N[C@@H](Cc1c[nH]cn1)C(=O)N[C@@H](CO)C(=O)N[C@@H](CCCC)C(=O)N[C@@H](CCC(=O)O)C(=O)N[C@H](C(=O)N[C@@H](CCCNC(=N)N)C(=O)N[C@H](C(=O)N1CCC[C@H]1C(=O)N[C@@H](CC(=O)O)C(=O)N[C@H](C(=O)N[C@@H](CC(N)=O)C(=O)N1CCC[C@H]1C(=O)N[C@@H](C)C(=O)N[C@@H](Cc1c[nH]c2ccccc12)C(=O)N[C@@H](Cc1ccc(O)cc1)C(=O)N[C@H](C(=O)NCC(=O)N[C@@H](CCCNC(=N)N)C(=O)NCC(=O)N[C@H](C(=O)N[C@@H](CCCNC(=N)N)C(=O)N1CCC[C@H]1C(=O)N[C@H](C(=O)NCC(=O)N[C@@H](CCCNC(=N)N)C(=O)N[C@@H](Cc1ccccc1)C(N)=O)C(C)C)[C@@H](C)CC)[C@@H](C)O)[C@@H](C)CC)[C@@H](C)O)[C@@H](C)O [Analog 4] (Octanoyl-SRAHQHS[Nle]ETRTPDINPAWYTGRGIRPVGRF-NH2) | 503 |  | 254 | 94 |  | 
CCCCCCCCCC(=O)N[C@@H](CO)C(=O)N[C@@H](CCCNC(=N)N)C(=O)N[C@@H](C)C(=O)N[C@@H](Cc1c[nH]cn1)C(=O)N[C@@H](CCC(N)=O)C(=O)N[C@@H](Cc1c[nH]cn1)C(=O)N[C@@H](CO)C(=O)N[C@@H](CCCC)C(=O)N[C@@H](CCC(=O)O)C(=O)N[C@H](C(=O)N[C@@H](CCCNC(=N)N)C(=O)N[C@H](C(=O)N1CCC[C@H]1C(=O)N[C@@H](CC(=O)O)C(=O)N[C@H](C(=O)N[C@@H](CC(N)=O)C(=O)N1CCC[C@H]1C(=O)N[C@@H](C)C(=O)N[C@@H](Cc1c[nH]c2ccccc12)C(=O)N[C@@H](Cc1ccc(O)cc1)C(=O)N[C@H](C(=O)NCC(=O)N[C@@H](CCCNC(=N)N)C(=O)NCC(=O)N[C@H](C(=O)N[C@@H](CCCNC(=N)N)C(=O)N1CCC[C@H]1C(=O)N[C@H](C(=O)NCC(=O)N[C@@H](CCCNC(=N)N)C(=O)N[C@@H](Cc1ccccc1)C(N)=O)C(C)C)[C@@H](C)CC)[C@@H](C)O)[C@@H](C)CC)[C@@H](C)O)[C@@H](C)O [Analog 5] (Decanoyl-SRAHQHS[Nle]ETRTPDINPAWYTGRGIRPVGRF-NH2) | 758 |  | 266 | 57 |  | 
CCCCCCCCCCCCCCCC(=O)NCCCC[C@H](NC(=O)[C@@H]1CCCN1C(=O)[C@H](CC(N)=O)NC(=O)[C@@H](NC(=O)[C@H](CC(=O)O)NC(=O)[C@@H]1CCCN1C(=O)[C@@H](NC(=O)[C@H](CCCNC(=N)N)NC(=O)[C@@H](NC(=O)[C@H](CCC(=O)O)NC(=O)[C@H](CCSC)NC(=O)[C@H](CO)NC(=O)[C@H](Cc1c[nH]cn1)NC(=O)[C@H](CCCNC(=N)N)NC(=O)[C@H](Cc1c[nH]cn1)NC(=O)[C@@H](NC(=O)[C@H](CCCNC(=N)N)NC(=O)[C@@H](N)CO)[C@@H](C)O)[C@@H](C)CC)[C@@H](C)O)[C@@H](C)CC)C(=O)N[C@@H](Cc1c[nH]c2ccccc12)C(=O)N[C@@H](Cc1ccc(O)cc1)C(=O)N[C@@H](C)C(=O)N[C@@H](CO)C(=O)N[C@@H](CCCNC(=N)N)C(=O)NCC(=O)N[C@H](C(=O)N[C@@H](CCCNC(=N)N)C(=O)N1CCC[C@H]1C(=O)N[C@H](C(=O)NCC(=O)N[C@@H](CCCNC(=N)N)C(=O)N[C@@H](Cc1ccccc1)C(N)=O)C(C)C)[C@@H](C)CC [Analog 51] (H-SRTHRHSMEIRTPDINPK(Palmitoyl)WYASRGIRPVGRF-NH2) |  | 7.24 ± 0.13 | 54 | 20 |  | 

Source: US10350271B2, “Lipidated peptides for lowering blood glucose” (USTAV ORGANICKE CHEMIE A BIOCHEMIE AKADEMIE VED CR, V.V.I., priority 2014, dated 2019)
